One experiment deals with GAD65-GFP knock in mice. Briefly: E12-E17 NAD+ injection paradigm in GAD65-GFP knock in mice. Particulars: E18, vs NAD^+-untreated group. It counts as in vivo, mouse. The text has this: Animals: Timed pregnant CD1 mice were purchased from Charles River laboratories, MA. Colonies of GAD65-GFP mice were maintained in our institutional animal facility. Tie2-cre mice and Gabrb3 floxed (Gabrb3^fl/fl) mice were obtained from Jackson Labs. The Tie2-cre transgene is known for uniform expression of cre-recombinase in endothelial cells during embryogenesis and adulthood. To selectively delete Gabrb3 in endothelial cells, Tie2-cre transgenic mice (males) were crossed to Gabrb3^fl/fl mice (females) to generate Tie2-cre; Gabrb3^fl/+ mice (males). These were further crossed with Gabrb3^fl/fl mice (females) to obtain the Gabrb3 conditional knock-outs (Tie2-cre; Gabrb3^fl/fl mice). The day of plug discovery was designated embryonic day 0 (E0). Animal experiments were in full compliance with the NIH Guide for Care and Use of Laboratory Animals and were approved by the HMRI and McLean Institutional Animal Care Committees.
To test if the prenatal NAD^+ treatment was able to influence GABAergic neuronal migration, an in vitro neuronal migration assay was performed (FIG. 6M), after the in vivo NAD^+ treatment paradigm (E12-E17). […] This aspect was further explored by using the E12-E17 NAD^+ injection paradigm in GAD65-GFP knock in mice (FIGS. 6P-6T). Images of GFP^+ cells that had entered the dorsal telencephalon at E18 were collected and analyzed. […]

In experiment [1] the test system is cerebral cortex of Gabrb3^ECKO mice. Briefly: In vivo multiphoton laser-scanning microscopy of cortical microvasculature. Further details: species or system mouse. The method, then:
In vivo imaging of brain microvasculature by multiphoton laser-scanning microscopy: In vivo imaging of the brain vasculature in cranial window bearing mice was performed as described previously. Briefly, a cranial window was implanted by removing circular area of skull and dura. Then, the window was sealed with a 7 mm cover glass glued to the bone. For the measurement of red blood cell (RBC) velocity and blood vessel diameter, we used multiphoton laser-scanning microscopy (MPLSM). To avoid potential tissue/vessel alteration caused by the window implantation procedure, we performed imaging at least 10 days after cranial window implantation. For imaging, mice were anesthetized with ketamine/xylazine, then tetramethylrhodamine (TAMRA)-dextran (MW 500,000) was administrated through retro-orbital injection. Using TAMRA-dextran contrast enhanced angiography, region of interest is first identified. Since the intravenously injected dye labels only the blood plasma, RBCs appear as dark patches moving within the vessel lumen. Centerline RBC velocity was measured by repetitively scanning a line along the central axis of a single blood vessel (x-t) and enabling the tracking of the motion of these dark patches. The space-time image produced by the line-scan contained diagonal dark streaks formed by moving RBCs, with a slope that was inversely proportional to the centerline RBC velocity. This space-time image was then computationally processed using Matlab and Python to extract the gradient of each streak, corresponding to the RBC velocity. Briefly, diagonal filters of varying gradients were tested for each streak until the gradient that fit best was found. […] The blood flow rate was determined through the following formula: […]
Therefore, vessel diameters, red blood cell (RBC) velocity, and blood flow were evaluated in the cerebral cortex of saline-treated Gabrb3^fl/fl mice, saline-treated Gabrb3^ECKO mice, and NAD^+-treated Gabrb3^ECKO mice (FIGS. 14A-14F) using multiphoton laser-scanning microscopy (MPLSM) and a sophisticated cranial window model. […]

The subject of experiment [2] is Gabrb3^ECKO mice. Briefly: Self-grooming. It counts as in vivo, mouse. The note with it: after prenatal treatment. How it is done:
(§1) Behavioral Experiments: Mice were housed in our animal facility with a 12-hour light cycle with ad libitum access to food and water. Offspring stayed with their mothers until weaning at PND 21 after which males and females were separated. Before all behavioral testing, mice were acclimated to the testing room for 1 hour. Behavioral assays were performed according to established protocols referenced here: self-grooming, light-dark box, tail suspension test, Y-maze, open field locomotion activity, three chamber social interaction test and nest building with nestlets and with shredded paper. Both males and females were used for all behavioral assays. Experimenters scoring behaviors were blinded to the genotypes and treatment. Sample sizes for each assay are noted in figure legends.
Therefore, behavioral tests were performed to screen for stress, anxiety, locomotion, cognition, and sociability in saline-treated Gabrb3^fl/fl mice, saline-treated Gabrb3^ECKO mice and NAD^+-treated Gabrb3^ECKO mice. Mice from saline and NAD^+-treated groups were housed individually in cages containing wood chip bedding and two nestlets (pressed cotton) (FIGS. 16A-16D) or more naturalistic material like shredded paper strips (FIGS. 16E-16H). […] This rescue of home cage social behavior was a robust indication of well-being in NAD^+-treated Gabrb3^ECKO mice. […]

Experiment [3] relates to Gabrb3^ECKO mice. Briefly: Tail suspension test. Format: in vivo, mouse. Particulars: vs saline-treated Gabrb3^ECKO mice. The method, then:
as §1
Anxiety was next assessed with the classic light-dark transition test which triggers a struggle between the desires to explore a novel environment versus natural aversion of a brightly illuminated open space. […] The Y maze spontaneous alternation test was used to evaluate for spatial learning and memory in the three groups of mice. After introduction to the center of the maze, the mice were given free access to all three arms. […] The total number of arm entries and the sequence of entries are recorded in order to calculate the percentage of alternation. […]

Where [4] appears, read: adult, after prenatal treatment.

With `NC(=O)c1ccc[n+]([C@@H]2O[C@H](COP(=O)([O-])OP(=O)(O)OC[C@H]3O[C@@H](n4cnc5c(N)ncnc54)[C@H](O)[C@@H]3O)[C@@H](O)[C@H]2O)c1` [NAD^+], the “percentage of GFP^+ cells in dorsal telencephalon” value with GAD65-GFP knock in mice was “significant increase in the percentage of GFP^+ cells”. For the same molecule, in experiment [1] (setting [4]), the “RBC velocity in capillaries” value is reported as “reversed”; the “diameter of capillaries and collecting venules” value is recorded as “morphological alteration was rescued”. Also, the “blood flow in capillaries and collecting venules” value in experiment [1] (vs saline-treated Gabrb3^ECKO mice) was “significantly reduced”. For the same molecule, in the experiment on Gabrb3^ECKO mice [2], the severe grooming behavior entry is on record as “ameliorated”. In the experiment with Gabrb3^ECKO mice [3], the immobility times entry is given as “significantly lower immobility times”.
